The values below come from patent publication US20250009697A1, “COMPOSITION FOR INCREASING AMOUNT OF FOOD INGESTED AND/OR IMPROVING ANOREXIA, AND COMPOSITION FOR ACTIVATING TRANSIENT RECEPTOR POTENTIAL ANKYRIN 1” (HOUSE FOODS GROUP INC., priority 2021, published 2025).

Format in all cases: cell-based
One assay concerns the target T1, Human TRPA1 (hTRPA1) (Homo sapiens, UniProt O75762).
T1 construct: expressed in transfected cells
Kind of assay: TRPA1 Activation Test 2: intracellular Ca2+ imaging assay 2-1 to 2-3, hTRPA1 stably expressing cell line. The settings on record: for TRPA1 activation rate: Table 7; for TRPA1 activation rate, With antagonist: A-967079 1 μM; for TRPA1 activation rate, With antagonist / TRPA1 activation rate, Without antagonist: Table 8. How it is done:
(§1) DNAs encoding genes described in the following Table 2 were inserted into pcDNA 5/TO vector (Invitrogen) to prepare various expression vectors.
(§2) These expression vectors were transfected into T-REx™_293 cells (Invitrogen) by a conventional method using Lipofectamine LTX (Invitrogen). Then, various transfectants were cultured and cloned by a conventional method using Dulbecco's Modified Eagle Medium (DMEM, Nacalai Tesque Inc.), containing 10% fetal bovine serum (FBS, Cytiva), […] of hygromycin B, and 5 μg/mL of blasticidin S, as a drug selection medium to obtain a hTRPA1 stably expressing cell line, a hTRPV1 stably expressing cell line, and a hTRPM8 stably expressing cell line.
(§3) A hTRPA1 stably expressing cell line in which expression of hTRPA1 had been induced in advance by a conventional method was prepared in a 96 well clear bottom plate, and the hTRPA1 activating action of rhein (produced by Tokyo Chemical Industry Co., Ltd.) was tested. Specifically, after each well was washed with PBS, 50 μL of an assay buffer (Hanks' balanced salt solution containing no calcium ion or magnesium ion that contained 1 mM of CaCl2 dihydrate, 20 mM of HEPES, and 0.1% BSA) containing calcium fluorescent indicator Calbryte™ 520 AM (produced by AAT Bioquest) in a final concentration of 4 μM was added, followed by incubating at 33° C. for 45 minutes. After washing with the assay buffer, 100 μL of the assay buffer was added to each well. This plate was set to FlexStation 3 (Molecular Devices, LLC), and a fluorescence intensity (excitation wavelength 490 nm, fluorescence wavelength 525 nm) at 31° C. was measured every two seconds, and 30 seconds after the start of the measurement, 100 μL of an assay buffer containing a test sample (allyl isothiocyanate (AITC) of positive control or rhein) which was prepared to have a certain final concentration or DMSO was added. Then, a well in which an assay buffer containing ionomycin (having a final concentration of 10 μM after the addition) instead of the test samples was added was also prepared as a reference for fluorescence intensity.
(§4) The measurement was continued from the start of the measurement up to 120 seconds, and the TRPA1 activation ability of the test samples was calculated in accordance with the following formula.
(§5) Activation rate (%)=(Fmax[s]−F0)/(Fmax[i]−F0)×100 • Fmax[s]: The maximum value of the fluorescence intensity when the test sample or positive control was added • F0: The average value of the fluorescence intensity for 20 seconds after the start of the measurement (base line) • Fmax[i]: The maximum value of the fluorescence intensity when ionomycin was added
The TRPA1 activation ability of each test sample was measured in the same manner as in the above (2) except the test was conducted with A-967079 (1 μM), which is a TRPA1-specific antagonist, or without A-967079. In addition, intracellular Ca^2+ imaging assay was conducted in the same manner as in the above (2) except that a hTRPV1 stably expressing cell line, a hTRPM8 stably expressing cell line, or a Mock cell was used instead of the hTRPA1 stably expressing cell line. Note that capsaicin was used as positive control for the hTRPV1 stably expressing cell line, and icilin was used as positive control for the hTRPM8 stably expressing cell line.
A TRPA1 activation ability was measured in the same manner as in the above (2) by using, as a test sample, rhein or compounds described in the following Table 10, which had anthraquinone structures similar to rhein, at a concentration of 200 μM of the test sample.

Another assay deals with T2, Human TRPM8 (hTRPM8) (Homo sapiens, UniProt Q7Z2W7).
T2 construct: expressed in transfected cells
T2 sequence (Q7Z2W7 whole entry): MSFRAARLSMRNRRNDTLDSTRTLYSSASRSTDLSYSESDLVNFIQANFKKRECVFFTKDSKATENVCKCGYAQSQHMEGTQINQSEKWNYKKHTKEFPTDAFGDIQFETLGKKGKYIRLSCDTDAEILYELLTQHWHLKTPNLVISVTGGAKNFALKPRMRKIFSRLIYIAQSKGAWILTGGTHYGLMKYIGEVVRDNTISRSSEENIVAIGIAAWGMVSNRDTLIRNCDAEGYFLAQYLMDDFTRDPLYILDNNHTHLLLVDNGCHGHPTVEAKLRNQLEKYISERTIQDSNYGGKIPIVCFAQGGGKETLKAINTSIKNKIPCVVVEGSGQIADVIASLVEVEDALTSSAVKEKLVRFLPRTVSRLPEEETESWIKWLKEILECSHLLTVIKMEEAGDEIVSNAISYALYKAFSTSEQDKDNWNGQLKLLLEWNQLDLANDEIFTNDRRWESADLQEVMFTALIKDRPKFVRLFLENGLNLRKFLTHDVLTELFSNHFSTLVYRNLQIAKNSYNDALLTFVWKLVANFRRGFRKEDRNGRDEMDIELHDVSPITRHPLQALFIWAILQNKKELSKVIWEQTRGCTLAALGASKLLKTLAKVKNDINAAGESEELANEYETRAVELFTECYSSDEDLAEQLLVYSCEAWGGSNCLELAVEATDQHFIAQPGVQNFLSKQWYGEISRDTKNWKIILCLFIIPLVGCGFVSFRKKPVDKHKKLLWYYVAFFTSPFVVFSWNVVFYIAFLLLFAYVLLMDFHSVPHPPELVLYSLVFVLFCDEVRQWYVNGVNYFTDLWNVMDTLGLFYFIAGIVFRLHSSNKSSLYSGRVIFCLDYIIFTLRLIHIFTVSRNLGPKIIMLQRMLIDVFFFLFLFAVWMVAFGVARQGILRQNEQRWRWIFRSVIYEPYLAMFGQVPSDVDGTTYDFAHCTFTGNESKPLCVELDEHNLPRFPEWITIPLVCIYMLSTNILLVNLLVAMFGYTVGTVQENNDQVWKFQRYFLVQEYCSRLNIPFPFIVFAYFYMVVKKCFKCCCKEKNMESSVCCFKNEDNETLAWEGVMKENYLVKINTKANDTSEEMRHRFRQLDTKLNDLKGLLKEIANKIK
Description: TRPA1 Activation Test 2: intracellular Ca2+ imaging assay 2-2, hTRPM8 stably expressing cell line. The settings on record: for TRPM8 activation rate: Table 9. How it is done:
as §1, §2
as §3, with “This plate was set to FlexStation 3 (Molecular Devices, LLC), and a fluorescence intensity (excitation wavelength 490 nm, fluorescence wavelength 525 nm) at 31° C. was measured every two seconds, and 30 seconds after the start of the measurement, 100 μL of an assay buffer containing a test sample (allyl isothiocyanate (AITC) of positive control or rhein) which was prepared to have a certain final concentration or DMSO was added.” left out
as §4, §5
The TRPA1 activation ability of each test sample was measured in the same manner as in the above (2) except the test was conducted with A-967079 (1 μM), which is a TRPA1-specific antagonist, or without A-967079. In addition, intracellular Ca^2+ imaging assay was conducted in the same manner as in the above (2) except that a hTRPV1 stably expressing cell line, a hTRPM8 stably expressing cell line, or a Mock cell was used instead of the hTRPA1 stably expressing cell line. […]

In a further assay the test system is Mock cell. Description: TRPA1 Activation Test 2: intracellular Ca2+ imaging assay 2-2, Mock cell. The settings on record: Table 9. The procedure: as §3, §4
Activation rate (%)=(Fmax[s]−F0)/(Fmax[i]−F0)×100 • Fmax[s]: The maximum value of the fluorescence intensity when the test sample or positive control was added • F0: The average value of the fluorescence intensity for 20 seconds after the start of the measurement (base line) • Fmax[i]: The maximum value of the fluorescence intensity when ionomycin was added […]

T1 sequence (O75762 whole entry): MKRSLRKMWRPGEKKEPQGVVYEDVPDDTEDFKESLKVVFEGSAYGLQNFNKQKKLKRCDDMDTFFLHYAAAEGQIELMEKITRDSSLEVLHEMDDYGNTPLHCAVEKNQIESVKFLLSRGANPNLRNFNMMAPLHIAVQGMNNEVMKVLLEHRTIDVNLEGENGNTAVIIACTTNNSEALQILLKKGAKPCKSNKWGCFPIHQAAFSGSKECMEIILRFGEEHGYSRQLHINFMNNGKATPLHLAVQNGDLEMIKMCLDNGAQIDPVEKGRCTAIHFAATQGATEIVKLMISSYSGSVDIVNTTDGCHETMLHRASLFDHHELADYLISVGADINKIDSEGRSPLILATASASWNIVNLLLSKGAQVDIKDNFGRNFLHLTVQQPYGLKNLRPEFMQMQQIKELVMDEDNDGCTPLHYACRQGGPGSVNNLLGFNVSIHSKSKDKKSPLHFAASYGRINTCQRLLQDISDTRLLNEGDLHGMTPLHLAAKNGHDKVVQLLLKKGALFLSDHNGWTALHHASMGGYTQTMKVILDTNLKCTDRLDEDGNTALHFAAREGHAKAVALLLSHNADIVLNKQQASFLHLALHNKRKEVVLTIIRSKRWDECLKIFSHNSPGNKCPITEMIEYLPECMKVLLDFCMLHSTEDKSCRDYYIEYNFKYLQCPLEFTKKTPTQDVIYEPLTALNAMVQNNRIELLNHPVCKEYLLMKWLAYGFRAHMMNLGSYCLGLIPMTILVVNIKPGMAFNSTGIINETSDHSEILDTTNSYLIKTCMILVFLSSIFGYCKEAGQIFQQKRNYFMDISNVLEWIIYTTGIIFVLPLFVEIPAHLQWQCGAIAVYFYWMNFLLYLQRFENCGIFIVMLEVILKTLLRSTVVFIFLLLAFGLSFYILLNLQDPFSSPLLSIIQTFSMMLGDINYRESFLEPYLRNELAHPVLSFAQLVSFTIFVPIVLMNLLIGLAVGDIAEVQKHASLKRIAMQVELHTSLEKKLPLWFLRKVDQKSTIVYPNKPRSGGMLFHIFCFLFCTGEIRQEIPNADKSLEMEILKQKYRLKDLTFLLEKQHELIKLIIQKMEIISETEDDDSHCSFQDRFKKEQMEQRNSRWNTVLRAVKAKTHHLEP

On to `O=C(O)c1cc(O)c2c(c1)C(=O)c1cccc(O)c1C2=O` [Rhein, rhein], for which the “TRPA1 activating action with TRPA1-specific antagonist (in words)” value on Human TRPA1 (hTRPA1) (A-967079) is reported as “inhibited by the TRPA1-specific antagonist”. The “TRPA1 activating action (in words)” value on Human TRPA1 (hTRPA1) (hTRPA1 stably expressing cell line) is on record as “activated TRPA1 in concentration dependent manner”. Besides, the TRPA1 activation rate is 0.57 ± 0.0414% at Human TRPA1 (hTRPA1) (test sample 1 μM); 19.1 ± 1.00% at Human TRPA1 (hTRPA1) (test sample 10 μM); 41.1 ± 1.51% on Human TRPA1 (hTRPA1) (test sample 25 μM); 66.4 ± 1.45% on Human TRPA1 (hTRPA1) (test sample 50 μM); 69.7 ± 1.25% on Human TRPA1 (hTRPA1) (test sample 75 μM); 75.5 ± 1.19% at Human TRPA1 (hTRPA1) (test sample 100 μM). The compound also yielded a TRPA1 activation rate on Human TRPA1 (hTRPA1) (test sample 200 μM) of 85.7 ± 1.62%. The “TRPA1 activation rate, With antagonist” value on Human TRPA1 (hTRPA1) (test sample 100 μM) is reported as 3.26 ± 0.102 %; on Human TRPA1 (hTRPA1) (test sample 200 μM), 8.40 ± 0.238 %. Moreover, the “TRPA1 activation rate, Without antagonist” value on Human TRPA1 (hTRPA1) (test sample 100 μM) was found to be 79.4 ± 4.08%; at Human TRPA1 (hTRPA1) (test sample 200 μM), 82.1 ± 0.918%. At Human TRPA1 (hTRPA1) (test sample 200 μM, Table 10), this compound yielded a TRPA1 activation rates of 85.7 ± 1.62%. Moreover, the “TRPM8 activation (in words)” value on Human TRPM8 (hTRPM8) (hTRPM8 stably expressing cell line) is “not activated”. Moreover, the values for the TRPM8 activation rate on Human TRPM8 (hTRPM8) (test sample 100 μM) and at Human TRPM8 (hTRPM8) (test sample 200 μM) were 2.52 ± 0.0847% and 5.71 ± 0.118%, respectively. In addition, the results for the “Activation rate, Mock” value with Mock cell (test sample 100 μM) and in the assay on Mock cell (test sample 200 μM) were 3.49 ± 0.0595% and 9.65 ± 0.143%, respectively.
